Tested on: CP CML
Test: Part B: disease response in CP CML subjects
Type: in vivo, human
Conditions: for Complete Molecular Response, Best Response / Complete cytogenetic response, Best Response / Cytogenetic response: Minimal response, Best Response / Cytogenetic response: Minor response, Best Response / Cytogenetic response: No response, Best Response / Hematological response: CHR, Best Response / Hematological response: No response, Best Response / Major cytogenetic response, Best Response / Major molecular response, Best Response / Molecular response: No response, Best Response / Partial cytogenetic response, Best Response: number of patients
Description: This was a Phase I/2, open-label, single-agent, multicenter, multi-dose, dose-escalation study in subjects with Philadelphia chromosome-positive Ph+ CML (CP CML, AP CML and BP CML) and Ph+ ALL. The primary objectives of this study were to determine the maximum tolerated dose (MTD; or recommended Phase 2 dose [RP2D]) of the compound of Formula I when administered orally and to evaluate its safety.
In this study, the dose-escalation cohort started with an accelerated titration study design (ATD) and shifted to a 3±3 design when subjects in the preceding ATD cohort experienced either grade 2 or higher adverse events (AEs) or dose-limiting toxicity (DLT) during Cycle 1 that was not clearly and incontrovertibly related to the underlying disease or concomitant medications. The DLT period consisted of 28 days (Cycle 1). Subjects experiencing DLTs were managed with dose delays and/or discontinuation and continued in the study until disease progression. Decisions to advance to a succeeding dose level occurred after the evaluation of safety and tolerability data for a given dose level.
Accordingly, the eligible subjects were treated in 4-week cycles of once daily self-administration of the compound of Formula I. The administration was after an overnight fast, or after maintaining approximately 2 hours of fasting before and after the dosing in all cycles.
For the cohorts, where the 3±3 design applies, 3 subjects were enrolled initially. If 2 of these subjects experienced a Grade 2 or more toxicity (that was not clearly and incontrovertibly related to the underlying disease or concomitant medications), subsequent cohorts were escalated according to smaller increments. Further, if there were no DLTs in the first 3 subjects, dose escalation to the next higher dose level was allowed to proceed. If 1 of the 3 subjects experienced a DLT, that dose level was expanded to 6 subjects (3 additional subjects were enrolled). If 2 subjects at a given dose level experienced a DLT, the MTD was considered to have been exceeded. The next lower dose level was expanded to 6 subjects, or if 6 subjects had already been enrolled and no more than 1 of the 6 subjects experienced a DLT, then this lower dose level was considered the MTD. Additional subjects were enrolled in dose escalation cohorts for further assessment of safety and efficacy of the compound of Formula 1 at doses that were tolerated (i.e., doses that have <2 DLTs in 6 enrolled subjects or <1 DLT in 3 enrolled subjects). Thus 204 mg was arrived at as MTD. A subject experiencing a DLT was allowed to continue therapy with a reduced dose. Subjects who experienced a DLT and recovered were treated at the next lower dose level until disease progression or other events requiring further dose reduction existed. For cohorts at Dose Level 2 or higher, a further dose reduction (i.e., up to 2 levels lower than their originally assigned dose) was implemented in the case of a further DLT or other non-DLT events requiring a dose reduction, if and when the event leading to dose reduction returned to Grade 1 or lower in severity. The reduced dose was re-escalated to the original or higher dose (i.e., the dose for which safety had been established in the dose escalation cohort) considering subject safety and response to the compound of Formula I. The subject was discontinued from treatment using the compound of Formula I, if dose reduction below 48 mg was required.
The study was conducted over a period of 60 months (5 years) which was divided in 28-days cycle. In the first two cycles, the dose administration was started on day 1 and the subject's assessments were performed on day 1, day 2, day 3, day 8, day 15 and day 22. From Cycle 3 onwards, the assessments were performed every 3 months (i.e., on day 28 of Cycle 3, followed by day 28 of Cycle 6 which was further followed by day 28 of Cycle 9). […]

[1] = 16 CP CML patients with prior ponatinib
[2] = prior ponatinib, 48 mg (N = 1) ESC
[3] = prior ponatinib, 66 mg (N = 2) ESC
[4] = prior ponatinib, 90 mg (N = 2) ESC
[5] = prior ponatinib, 126 mg (N = 1) ESC
[6] = prior ponatinib, 174 mg (N = 5) ESC
[7] = prior ponatinib, 204 mg (N = 3) ESC
[8] = prior ponatinib, 240 mg (N = 2) ESC

## Cc1ccc(C(=O)NNC(=O)c2c(C)cccc2Cl)cc1C#Cc1cnc2ccccc2c1 [compound of Formula I, N′-(2-chloro-6-methylbenzoyl)-4-methyl-3-[2-(3-quinolyl)ethynyl]-benzohydrazide]
12 mg (N = 1) ESC
  Best Cytogenetic Response: Complete Response: 1(100)
  Best Cytogenetic Response: Major Cytogenetic Response: 1(100)
  Best Cytogenetic Response: Minimal Response: 0
  Best Cytogenetic Response: Minor Response: 0
  Best Cytogenetic Response: No Response: 0
  Best Cytogenetic Response: Partial Response: 0
  Best Hematologic Response: Complete Response: 1(100)
  Best Hematologic Response: Major Hematologic Response: 1(100)
  Best Hematologic Response: No Evidence of Leukemia: 0
  Best Hematologic Response: No Response: 0
  Best Molecular Response: Complete Response: 0
  Best Molecular Response: Major Response: 0
48 mg (N = 3) ESC
  Best Cytogenetic Response: Complete Response: 2(66.7)
  Best Cytogenetic Response: Major Cytogenetic Response: 2(66.7)
  Best Cytogenetic Response: Minimal Response: 0
  Best Cytogenetic Response: Minor Response: 0
  Best Cytogenetic Response: No Response: 0
  Best Cytogenetic Response: Partial Response: 0
  Best Hematologic Response: Complete Response: 2(66.7)
  Best Hematologic Response: Major Hematologic Response: 2(66.7)
  Best Hematologic Response: No Evidence of Leukemia: 0
  Best Hematologic Response: No Response: 1(33.3)
  Best Molecular Response: Complete Response: 2(66.7)
  Best Molecular Response: Major Response: 2(66.7)
  Best Molecular Response: No Response: 0
66 mg (N = 4) ESC
  Best Cytogenetic Response: Complete Response: 2(50.0)
  Best Cytogenetic Response: Major Cytogenetic Response: 2(50.0)
  Best Cytogenetic Response: Minimal Response: 1(25.0)
  Best Cytogenetic Response: Minor Response: 0
  Best Cytogenetic Response: No Response: 1(25.0)
  Best Cytogenetic Response: Partial Response: 0
  Best Hematologic Response: Complete Response: 3(75.0)
  Best Hematologic Response: Major Hematologic Response: 3(75.0)
  Best Hematologic Response: No Evidence of Leukemia: 0
  Best Hematologic Response: No Response: 1(25.0)
  Best Molecular Response: Complete Response: 1(25.0)
  Best Molecular Response: Major Response: 1(25.0)
  Best Molecular Response: No Response: 3(75.0)
90 mg (N = 2) ESC
  Best Cytogenetic Response: Complete Response: 0
  Best Cytogenetic Response: Major Cytogenetic Response: 1(50.0)
  Best Cytogenetic Response: Minimal Response: 0
  Best Cytogenetic Response: Minor Response: 0
  Best Cytogenetic Response: No Response: 1(50.0)
  Best Cytogenetic Response: Partial Response: 1(50.0)
  Best Hematologic Response: Complete Response: 2(100)
  Best Hematologic Response: Major Hematologic Response: 2(100)
  Best Hematologic Response: No Evidence of Leukemia: 0
  Best Hematologic Response: No Response: 0
  Best Molecular Response: Complete Response: 0
  Best Molecular Response: Major Response: 1(50.0)
  Best Molecular Response: No Response: 1(50.0)
126 mg (N = 4) ESC
  Best Cytogenetic Response: Complete Response: 2(50.0)
  Best Cytogenetic Response: Major Cytogenetic Response: 2(50.0)
  Best Cytogenetic Response: Minimal Response: 1(25.0)
  Best Cytogenetic Response: Minor Response: 0
  Best Cytogenetic Response: No Response: 1(25.0)
  Best Cytogenetic Response: Partial Response: 0
  Best Hematologic Response: Complete Response: 4(100)
  Best Hematologic Response: Major Hematologic Response: 4(100)
  Best Hematologic Response: No Evidence of Leukemia: 0
  Best Hematologic Response: No Response: 0
  Best Molecular Response: Complete Response: 1(25.0)
  Best Molecular Response: Major Response: 1(25.0)
  Best Molecular Response: No Response: 3(75.0)
174 mg (N = 7) ESC
  Best Cytogenetic Response: Complete Response: 3(42.9)
  Best Cytogenetic Response: Major Cytogenetic Response: 3(42.9)
  Best Cytogenetic Response: Minimal Response: 2(28.6)
  Best Cytogenetic Response: Minor Response: 1(14.3)
  Best Cytogenetic Response: No Response: 0
  Best Cytogenetic Response: Partial Response: 0
  Best Hematologic Response: Complete Response: 4(57.1)
  Best Hematologic Response: Major Hematologic Response: 4(57.1)
  Best Hematologic Response: No Evidence of Leukemia: 0
  Best Hematologic Response: No Response: 2(28.6)
  Best Molecular Response: Complete Response: 1(14.3)
  Best Molecular Response: Major Response: 3(42.9)
  Best Molecular Response: No Response: 3(42.9)
174 mg (N = 10) EXP
  Best Cytogenetic Response: Complete Response: 6(60.0)
  Best Cytogenetic Response: Major Cytogenetic Response: 7(70.0)
  Best Cytogenetic Response: Minimal Response: 3(30.0)
  Best Cytogenetic Response: Minor Response: 0
  Best Cytogenetic Response: No Response: 0
  Best Cytogenetic Response: Partial Response: 1 (10.0)
  Best Hematologic Response: Complete Response: 10(100)
  Best Hematologic Response: Major Hematologic Response: 10(100)
  Best Hematologic Response: No Evidence of Leukemia: 0
  Best Hematologic Response: No Response: 0
  Best Molecular Response: Complete Response: 1(10.0)
  Best Molecular Response: Major Response: 1(10.0)
  Best Molecular Response: No Response: 9(90.0)
204 mg (N = 6) ESC
  Best Cytogenetic Response: Complete Response: 4(66.7)
  Best Cytogenetic Response: Major Cytogenetic Response: 6(100)
  Best Cytogenetic Response: Minimal Response: 0
  Best Cytogenetic Response: Minor Response: 0
  Best Cytogenetic Response: No Response: 0
  Best Cytogenetic Response: Partial Response: 2(33.3)
  Best Hematologic Response: Complete Response: 6(100)
  Best Hematologic Response: Major Hematologic Response: 6(100)
  Best Hematologic Response: No Evidence of Leukemia: 0
  Best Hematologic Response: No Response: 0
  Best Molecular Response: Complete Response: 1(16.7)
  Best Molecular Response: Major Response: 3(50.0)
  Best Molecular Response: No Response: 3(50.0)
240 mg (N = 3) ESC
  Best Cytogenetic Response: Complete Response: 3(100)
  Best Cytogenetic Response: Major Cytogenetic Response: 3(100)
  Best Cytogenetic Response: Minimal Response: 0
  Best Cytogenetic Response: Minor Response: 0
  Best Cytogenetic Response: No Response: 0
  Best Cytogenetic Response: Partial Response: 0
  Best Hematologic Response: Complete Response: 2(66.7)
  Best Hematologic Response: Major Hematologic Response: 2(66.7)
  Best Hematologic Response: No Evidence of Leukemia: 0
  Best Hematologic Response: No Response: 0
  Best Molecular Response: Complete Response: 1(33.3)
  Best Molecular Response: Major Response: 3(100)
  Best Molecular Response: No Response: 0
8 patients out of 17, prior ponatinib
  MMR achieved: 47%
11 of 16 CP CML patients with prior ponatinib
  Major Cytogenetic Response (MCyR, both PCyR+ CCyR): 68.8%
[1]
  Achieved MCyR: 6 patients
  Maintained MCyR: 5 patients
ASC (N = 3)
  Complete Molecular Response, Best Response: 0
  Complete cytogenetic response, Best Response: 1
  Cytogenetic response: Minimal response, Best Response: 0
  Cytogenetic response: Minor response, Best Response: 1
  Cytogenetic response: No response, Best Response: 1
  Hematological response: CHR, Best Response: 3
  Hematological response: No response, Best Response: 0
  Major cytogenetic response, Best Response: 1
  Major molecular response, Best Response: 0
  Molecular response: No response, Best Response: 3
  Partial cytogenetic response, Best Response: 0
PON (N = 15)
  Complete Molecular Response, Best Response: 4
  Complete cytogenetic response, Best Response: 7
  Cytogenetic response: Minimal response, Best Response: 1
  Cytogenetic response: Minor response, Best Response: 1
  Cytogenetic response: No response, Best Response: 2
  Hematological response: CHR, Best Response: 12
  Hematological response: No response, Best Response: 3
  Major cytogenetic response, Best Response: 10
  Major molecular response, Best Response: 8
  Molecular response: No response, Best Response: 7
  Partial cytogenetic response, Best Response: 3
Total (N = 30) ESC
  Best Cytogenetic Response: Complete Response: 17(56.7)
  Best Cytogenetic Response: Major Cytogenetic Response: 20(66.7)
  Best Cytogenetic Response: Minimal Response: 4(13.3)
  Best Cytogenetic Response: Minor Response: 1(3.3)
  Best Cytogenetic Response: No Response: 3(10.0)
  Best Cytogenetic Response: Partial Response: 3(10.0)
  Best Hematologic Response: Complete Response: 24(80.0)
  Best Hematologic Response: Major Hematologic Response: 24(80.0)
  Best Hematologic Response: No Evidence of Leukemia: 0
  Best Hematologic Response: No Response: 4(13.3)
  Best Molecular Response: Complete Response: 7(23.3)
  Best Molecular Response: Major Response: 14(46.7)
  Best Molecular Response: No Response: 14(46.7)
More than 3 prior TKIs including ponatinib
  CCyR as best response: 46.7%
More than 3 prior TKIs including ponatinib and asciminib
  CCyR as best response: 33.3%
Ponatinib group
  Major cytogenetic response as best response: 66.7%
Ponatinib plus asciminib group
  Major cytogenetic response as best response: 33.3%
[2]
  Achieved MCyR: 0
  Achieved MMR: 1(100)
  MCyR: 1(100)
  Maintained MCyR: 1(100)
  Maintained MMR: 0
[3]
  Achieved MCyR: 1(50.0)
  Achieved MMR: 0
  MCyR: 1(50.0)
  Maintained MCyR: 0
  Maintained MMR: 0
[4]
  Achieved MCyR: 1(50.0)
  Achieved MMR: 1(50.0)
  MCyR: 1(50.0)
  Maintained MCyR: 0
  Maintained MMR: 0
[5]
  Achieved MCyR: 0
  Achieved MMR: 0
  MCyR: 0
  Maintained MCyR: 0
  Maintained MMR: 0
[6]
  Achieved MCyR: 1(20.0)
  Achieved MMR: 3(60.0)
  MCyR: 3(60.0)
  Maintained MCyR: 2(40.0)
  Maintained MMR: 0
[7]
  Achieved MCyR: 2(66.7)
  Achieved MMR: 1(33.3)
  MCyR: 3(100)
  Maintained MCyR: 1(33.3)
  Maintained MMR: 0
[8]
  Achieved MCyR: 1(50.0)
  Achieved MMR: 2(100)
  MCyR: 2(100)
  Maintained MCyR: 1(50.0)
  Maintained MMR: 0
Prior ponatinib, Total ESC
  Achieved MCyR: 6(37.5)
  Achieved MMR: 8(50.0)
  MCyR: 11(68.8)
  Maintained MCyR: 5(31.3)
  Maintained MMR: 0
